Where two headings read alike, the source gives them in different places.
Experiments:
[1] = target: T1, CCK receptor (pancreas) (Rattus norvegicus, UniProt P30551); test: CCK Receptor Binding (Pancreas): inhibition of ^125 I-CCK-33 binding; parameters: species or system Male Sprague-Dawley rats; conditions: rat pancreas membranes, ^125 I-CCK-33, 37° C., 30 minutes
T1 construct: The whole pancreas was dissected free of fat tissue and was homogenized; from tissue; host or cells: rat pancreas membranes (Sprague-Dawley)
T1 sequence (P30551 1-444): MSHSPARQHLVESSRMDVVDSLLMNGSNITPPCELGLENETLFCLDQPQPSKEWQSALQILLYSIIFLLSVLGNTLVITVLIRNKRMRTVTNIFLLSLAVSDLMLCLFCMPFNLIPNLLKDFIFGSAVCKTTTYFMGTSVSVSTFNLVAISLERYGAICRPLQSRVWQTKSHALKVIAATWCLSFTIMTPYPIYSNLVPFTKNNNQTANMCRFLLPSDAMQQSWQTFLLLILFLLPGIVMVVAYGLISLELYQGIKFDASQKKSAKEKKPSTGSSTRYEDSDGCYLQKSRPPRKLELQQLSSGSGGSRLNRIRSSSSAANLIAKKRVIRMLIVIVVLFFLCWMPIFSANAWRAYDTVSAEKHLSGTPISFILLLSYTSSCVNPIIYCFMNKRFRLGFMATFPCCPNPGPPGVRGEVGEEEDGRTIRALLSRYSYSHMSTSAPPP
In short: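 Bound ^125I-CCK-33 was counted in pellets after a 30 min, 37° C incubation followed by centrifugation. Membranes came from male Sprague-Dawley rat pancreas, assayed in Tris HCl pH 7.7 containing DTT, bacitracin, PMSF and o-phenanthroline. For Scatchard analysis, tracer was diluted with rising unlabelled CCK-33.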

[2] = target: T2, CCK receptor (brain, cerebral cortex) (Cavia porcellus, UniProt H0VZC5); test: biochemical; type: binding, Male Hartley guinea pigs
T2 construct: Cerebral cortex was dissected and used as a receptor source; from tissue; host or cells: guinea pig cerebral cortex membranes (male Hartley)
T2 sequence (H0VZC5 1-426): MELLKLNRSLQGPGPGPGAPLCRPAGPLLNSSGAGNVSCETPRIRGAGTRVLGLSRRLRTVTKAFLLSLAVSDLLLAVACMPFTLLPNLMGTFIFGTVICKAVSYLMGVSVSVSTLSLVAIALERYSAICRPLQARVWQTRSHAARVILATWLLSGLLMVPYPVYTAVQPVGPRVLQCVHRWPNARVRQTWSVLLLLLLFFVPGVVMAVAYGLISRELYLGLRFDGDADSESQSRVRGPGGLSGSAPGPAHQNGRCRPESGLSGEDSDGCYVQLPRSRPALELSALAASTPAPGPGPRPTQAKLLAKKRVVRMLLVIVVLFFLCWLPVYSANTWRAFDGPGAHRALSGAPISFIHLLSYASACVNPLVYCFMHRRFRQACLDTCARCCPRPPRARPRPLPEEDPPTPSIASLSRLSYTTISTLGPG
In short: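 Binding of [radiolabeled] CCK-33 measured by gamma counting of centrifuged pellets after 2 h at 25°C. Membranes came from guinea pig brain cortex, suspended in 10 mM HEPES, 5 mM MgCl2, 1 mM EGTA, 0.25 mg/ml bacitracin, 0.4% BSA.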

[3] = target: T3, Gastrin receptor (gastric glands) (Cavia porcellus, UniProt H0VZC5); test: Gastrin Receptor Binding in Guinea Pig Gastric Glands; parameters: species or system guinea pig (male Hartley); conditions: 25° C., 30 minutes
T3 construct: The washed guinea pig gastric glands prepared as above were resuspended; from tissue; host or cells: guinea pig gastric mucosal glands (male Hartley)
T3 sequence (H0VZC5 1-426): T2 sequence (H0VZC5 1-426)

[4] = read-out: IC50 ^125 I-CCK Pancreas
[5] = IC50 ^125 I-CCK Brain, guinea pig cerebral cortex, ^125 I-CCK-33, 25° C., 2 hours
[6] = IC50 ^125 I-Gastrin Gastric Glands
[7] = read-out: IC50 ^125 I-CCK Brain; guinea pig cerebral cortex, ^125 I-CCK-33, 25° C., 2 hours
[8] = ^125 I-gastrin, read-out: IC50 ^125 I-Gastrin Gastric Glands
[9] = guinea pig cerebral cortex, ^125 I-CCK-33, 25° C., 2 hours; read-out: IC50 ^125 I-CCK Brain

| Compound | IC50 [1, 4] | IC50 [2, 5] | IC50 [3, 6] | IC50 [2, 7] | IC50 [3, 8] | IC50 ([1]; IC50 ^125 I-CCK Pancreas) | IC50 [2, 9] |
| --- | --- | --- | --- | --- | --- | --- | --- |
| O=C(NC1N=C(c2ccccc2)c2ccccc2NC1=O)C1Cc2ccccc2N1 (stereo not drawn) [Example 133, 1,3-Dihydro-3-(RS)-(2-indolinecarbonylamino)-5-phenyl-2-H-1,4-benzodiazepin-2-one] | 0.9 µM | > 40 µM | 110 µM | – | – | – | – |
| CN1C(=O)[C@@H](NC(=O)c2ccccc2Cl)N=C(c2ccccc2)c2ccccc21 [Example 150, 3(S)-(-)-3-(2-Chlorobenzoylamino)-1,3-dihydro-1-methyl-5-phenyl-2H-1,4-benzodiazepin-2-one] | 1.7 µM | – | – | 83 µM | 130 µM | – | – |
| CN1C(=O)[C@H](NC(=O)c2ccccc2Cl)N=C(c2ccccc2)c2ccccc21 [Example 151, 3(R)-(+)-3-(2-Chlorobenzoylamino)-1,3-dihydro-1-methyl-5-phenyl-2H-1,4-benzodiazepin-2-one] | 11 µM | – | – | 22 µM | 7.5 µM | – | – |
| CN1C(=O)[C@@H](NC(=O)c2cccc(Br)c2)N=C(c2ccccc2F)c2ccccc21 [Example 154, 3(S)-(+)-3-(3-Bromobenzoylamino)-1,3-dihydro-5-(2-fluorophenyl)-1-methyl-2H-1,4-benzodiazepin-2-one] | 0.0035 µM | 3.5 µM | – | – | 0.5 µM | – | – |
| CN1C(=O)[C@@H](NC(=O)c2ccc(Br)cc2)N=C(c2ccccc2F)c2ccccc21 [Example 156, 3(S)-(+)-3-(4-Bromobenzoylamino)-1,3-dihydro-5-(2-fluorophenyl)-1-methyl-2H-1,4-benzodiazepin-2-one] | – | 4 µM | – | – | 0.68 µM | 0.0035 µM | – |
| CN1C(=O)[C@@H](NC(=O)c2ccc(C(C)(C)C)cc2)N=C(c2ccccc2F)c2ccccc21 [Example 157, 3(S)-(+)-3-(4-t-Butylbenzoylamino)-1,3-dihydro-5-(2-fluorophenyl)-1-methyl-2H-1,4-benzodiazepin-2-one] | 0.019 µM | – | – | – | 2.4 µM | – | 8 µM |
| CN1C(=O)[C@@H](NC(=O)c2ccc(I)cc2)N=C(c2ccccc2F)c2ccccc21 [Example 159, 3(S)-(+)-1,3-Dihydro-5-(2-fluorophenyl)-3-(4-iodobenzoylamino)-1-methyl-2H-1,4-benzodiazepin-2-one] | – | 3 µM | – | – | 0.53 µM | 0.0034 µM | – |
| CN1C(=O)[C@@H](NC(=O)c2ccc(C#N)cc2)N=C(c2ccccc2F)c2ccccc21 [Example 162, 3(S)-(+)-3-(4-Cyanobenzoylamino)-1,3-dihydro-5-(2-fluorophenyl)-1-methyl-2H-1,4-benzodiazeoin-2-one] | 0.043 µM | 31 µM | – | – | 9 µM | – | – |
| CN1C(=O)[C@H](NC(=O)c2cccc(I)c2)N=C(c2ccccc2F)c2ccccc21 [Example 168, 3(R)-(-)-1,3-Dihydro-5-(2-fluorophenyl)-3-(3-iodobenzoylamino)-1-methyl-2H-1,4-benzodiazepin-2-one] | 0.015 µM | – | – | – | 2 µM | – | 2.4 µM |
| CN1C(=O)[C@H](NC(=O)c2ccccc2I)N=C(c2ccccc2F)c2ccccc21 [Example 169, 3(R)-(+)-1,3-Dihydro-5-(2-fluorophenyl)-3-(2-iodobenzoylamino)-1-methyl-2H-1,4-benzodiazepin-2-one] | 58 µM | 3.8 µM | – | – | 4.4 µM | – | – |
| CN1C(=O)[C@@H](NC(=O)c2ccccc2I)N=C(c2ccccc2F)c2ccccc21 [Example 170, 3(S)-(-)-1,3-Dihydro-5-(2-fluorophenyl)-3-(2-iodobenzoylamino)-1-methyl-2H-1,4-benzodiazepin-2-one] | 0.8 µM | 45 µM | – | – | 11 µM | – | – |
| CN1C(=O)[C@H](NC(=O)c2ccccc2Cl)N=C(c2ccccc2F)c2ccccc21 [Example 172, 3(R)-(+)-3-(2-Chlorobenzoylamino)-1,3-dihydro-5-(2-fluorophenyl)-1-methyl-2H-1,4-benzodiazepin-2-one] | 3.4 µM | 16 µM | 3.7 µM | – | – | – | – |
| O=C(N[C@H]1N=C(c2ccccc2)c2ccccc2NC1=O)c1cc2ccccc2[nH]1 [Example 187, 3(S)-(2-Indolecarbonyl)amino-1,3-dihydro-5-phenyl-2H-1,4,-benzodiazepin-2-one] | – | 1.3 µM | 5.3 µM | – | – | 0.003 µM | – |
| CC(C)C(=O)N[C@H]1N=C(c2ccccc2)c2ccccc2N(C)C1=O [Example 189, (S)-N-(2,3-Dihydro-1-methyl-2-oxo-5-phenyl-1H-1,4-benzodiazepin-3-yl)-2-methylpropanamide] | 1.1 µM | > 100 µM | 73 µM | – | – | – | – |
| CC(C)CC(=O)N[C@H]1N=C(c2ccccc2)c2ccccc2N(C)C1=O [Example 190, (S)-N-(2,3-Dihydro-1-methyl-2-oxo-5-phenyl-1H-1,4-benzodiazepin-3-yl)-3-methylbutanamide] | – | – | – | – | 130 µM | 0.78 µM | > 100 µM |
| CN1C(=O)[C@@H](NC(=O)C2CCCCC2)N=C(c2ccccc2)c2ccccc21 [Example 191, (S)-N-(2,3-Dihydro-1-methyl-2-oxo-5-phenyl-1H-1,4-benzodiazepin-3-yl)-cyclohexanecarboxamide] | 0.8 µM | – | – | – | > 100 µM | – | > 100 µM |
| CN1C(=O)[C@@H](NC(=O)C(C)(C)C)N=C(c2ccccc2)c2ccccc21 [Example 193, (S)-N-(2,3-Dihydro-1-methyl-2-oxo-5-phenyl-1H-1,4-benzodiazepin-3-yl]-2,2-dimethylpropanamide] | 1.6 µM | > 100 µM | 13 µM | – | – | – | – |
| CCOC(=O)CN1C(=O)C(NC(=O)Nc2ccc(Cl)cc2)N=C(c2ccccc2F)c2ccccc21 (stereo not drawn) [Example 194, 3-((((4-Chlorophenyl)amino)carbonyl)amino)-5-(2-fluorophenyl)-2,3-dihydro-2-oxo-1H-1,4-benzodiazepin-1-acetic acid ethyl ester] | 0.22 µM | – | – | – | 0.004 µM | – | 0.0012 µM |
| CCOC(=O)CN1C(=O)C(NC(=O)NC(C)c2ccccc2)N=C(c2ccccc2F)c2ccccc21 (stereo not drawn) [Example 195, 5-(2-Fluorophenyl)-2,3-dihydro-2-oxo-((((1-phenylethyl)amino)carbonyl)amino)-1H-1,4-benzodiazepine-1-acetic acid ethyl ester] | – | – | – | – | 0.4 µM | 4.8 µM | > 0.1 µM |
| CN1C(=O)C(NC(=O)c2ccc(Cl)cc2N)N=C(c2ccccc2)c2ccccc21 (stereo not drawn) [Example 196, 3-N-(2,3-Dihydro-1-methyl-2-oxo-5-phenyl-1H-1,4-benzodiazepine-3-yl)-2-amino-4-chlorobenzamide] | 0.0009 µM | 2.4 µM | 1.9 µM | – | – | – | – |
| CN1C(=O)C(C(=O)Nc2ccc(Cl)cc2)N=C(c2ccccc2)c2ccccc21 (stereo not drawn) [Example 197, N-(4-Chlorphenyl)-2,3-dihydro-1-methyl-2-oxo-5-phenyl-1H-1,4-benzodiazepine-3-carboxamide] | – | – | – | – | 10 µM | 1.9 µM | 5.9 µM |
| CN1C(=O)C(Cc2cn(C)c3ccccc23)N=C(c2ccccc2)c2ccccc21 (stereo not drawn) [Example 200, 1,3-Dihydro-1-methyl-3-((1-methyl-1H-indol-3-yl)methyl)-5-phenyl-2H-1,4-benzodiazepin-2-one] | – | – | – | – | 67 µM | 0.1 µM | 63 µM |
| O=C(O)CN1C(=O)C(NC(=O)Nc2ccc(Cl)cc2)N=C(c2ccccc2)c2ccccc21 (stereo not drawn) [Example 202, 3-((((4-Chlorophenyl)amino)carbonyl)amino)-2,3-dihydro-2-oxo-5-phenyl-1H-1,4-benzodiazepine-1-acetic acid] | 0.056 µM | – | – | – | 0.12 µM | – | 0.072 µM |

From US4820834A, “Benzodiazepine analogs” (priority 1987, dated 1989)
